Read-outs that look alike come from different tables or passages of the source.
Tests used:
[1] = test system: HCV genotype 1b replicon; assay: HCV replicon assay (Zluc luciferase); type: cell-based; conditions: Zluc cells, 72 hours, read-out: HCV Replicon EC50
Method: Huh-7-derived cell line (Zluc) that harbors an HCV genotype 1b replicon and a luciferase reporter gene was grown in Dulbecco's Modified Eagle Medium (DMEM) supplemented with 10% fetal bovine serum, 2 mM GlutaMAX, 1% MEM nonessential amino acids, 100 IU/mL penicillin, 100 μg/mL streptomycin, and 0.5 mg/mL Geneticin® (G418). For dose response testing the cells were seeded in 96-well plates at 7.5×10^3 cells per well in a volume of 50 μL, and incubated at 37° C./5% CO2. Drug solutions were made up freshly in Huh-7 media as 2× stocks. Ten additional 5-fold dilutions were prepared from these stocks in DMEM without G418. At least three hours after Zluc cells were seeded, drug treatment was initiated by adding 50 μL of drug dilutions to the plates in duplicate. Final concentrations of drug ranged from 100 μM to […]. Cells were then incubated at 37° C./5% CO2. Alternatively, compounds were tested at two concentrations (1 μM and 10 μM). […] For this, media was removed from the plates via gentle tapping. Fifty microliters of ONE-glo luciferase assay reagent was added to each well. The plates were shaken gently for 3 min at room temperature and luminescence was measured on a Victor^3 V 1420 multilabel counter (Perkin Elmer) with a 1 second read time using a 700 nm cut-off filter. The EC50 values were calculated from dose response curves from the resulting best-fit equations determined by Microsoft Excel and XLfit 4.1 software. When screening at two fixed concentrations, the results were expressed as % inhibition at 1 μM and 10 μM.

[2] = in vitro; conditions: human
[3] = Liver triphosphate pharmacokinetics after single oral dose in CD-1 mice; type: in vivo; design: key: + ≤ 15; 15 < ++ ≤ 50; 50 < +++ ≤ 100; 100 < ++++; BLQ = below limit of quantitation; conditions: single oral dose 10 mg/kg in PEG 200;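 as to Ms Liver TP AUC: pmol·h/g liver normalized to a 1 µmol/kg dose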;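 as to Ms Liver TP Cmax: pmol/g liver normalized to a 1 µmol/kg dose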
Method: Internal standard solution was added to the homogenate followed by neutralization with 20% ammonium hydroxide solution and addition of 500 μL 1% formic acid. The tissue samples were extracted by weak anion exchange solid phase extraction (SPE). Post extraction, the eluates were evaporated under nitrogen, followed by reconstitution before injection onto the LC-MS/MS system.

[4] = Plasma nucleoside pharmacokinetics after single oral dose in CD-1 mice; type: in vivo; conditions: single oral dose 10 mg/kg in PEG 200;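 as to Ms Plasma nucleoside AUC: pmol·h/mL plasma normalized to a 1 µmol/kg dose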
Method: Plasma samples were analyzed for nucleoside by LC-MS/MS. The internal standard (IS) was either 2′-MeG-D3 or tiapride. For protein precipitation and extraction, each plasma sample (50 μL) was treated with 500 μL of 0.2% formic acid in acetonitrile and 20 μL of the internal standard working solution. After vortexing and centrifugation, 500 μL of the sample extracts were transferred to a new plate, dried under N2 at ˜28° C. and reconstituted with 75 μL of 0.2% FA in water. The extracts were chromatographed on an Aquasil C18 column using a gradient system of 0.2% formic acid in water and acetonitrile. The analytes were detected and quantified by tandem mass spectrometry in positive ion mode on an MDS Sciex API5000 equipped with a Turbo Ionspray® interface. The calibration range was 0.500 (LLOQ) to 200 ng/mL in mouse plasma.

[5] = test system: Zluc cells; assay: Cytotoxicity evaluation, CellTiter-Blue Cell Viability Assay; conditions: Zluc cells, CellTiter-Blue

| Compound | EC50 ([1]; Hepatitis C virus, 72 h) [µM] | CC50 [2] [µM] | Ms Liver TP AUC [3] | Ms Liver TP Cmax [3] | Ms Plasma nucleoside AUC [4] | Ms Plasma nucleoside Cmax [4] | EC50 [1] [µM] | CC50 [5] [µM] |
| --- | --- | --- | --- | --- | --- | --- | --- | --- |
| CCOC(=O)NCCC(C)(C)C(=O)SCCOP(=O)(NCc1ccccc1)OC[C@H]1O[C@@H](n2ccc(=O)[nH]c2=O)[C@](C)(Cl)[C@@H]1O (mixture of isomers) [Compound 51 Mixture of P-Diastereoisomers] | 0.25 to 1 | > 50 |  |  |  |  |  |  |
| CCOc1nc(N)nc2c1ncn2[C@@H]1O[C@H](COP(=O)(N[C@@H](C)C(=O)OC(C)C)Oc2ccccc2)[C@@H](O)[C@@]1(C)Cl (single isomer, unassigned) [Compound 17ii Diastereomer 1] | 1 to 10 | > 50 | BLQ | BLQ |  |  |  |  |
| CC(C)OC(=O)[C@H](C)NP(=O)(OC[C@H]1O[C@@H](n2cnc3c(=O)[nH]c(N)nc32)[C@](C)(Cl)[C@@H]1O)Oc1ccccc1 (single isomer, unassigned) [Compound 21ii Diastereomer 1] | > 10 | > 50 |  |  |  |  |  |  |
| C[C@H](NP(=O)(OC[C@H]1O[C@@H](n2ccc(=O)[nH]c2=O)[C@](C)(Cl)[C@@H]1O)Oc1ccccc1)C(=O)OCC(C)(C)C (single isomer, unassigned) [Compound 42ii Single Diastereoisomer] | < 0.25 | > 50 |  |  |  |  |  |  |
| CC(C)OC(=O)C(C)NP(=O)(OCCSC(=O)C(C)(C)C)OC[C@H]1O[C@@H](n2ccc(=O)[nH]c2=O)[C@](C)(Cl)[C@@H]1O (single isomer, unassigned) [Compound 43ii Diastereomer 2] | 0.25 to 1 | > 50 |  |  |  |  |  |  |
| CC(C)(CO)C(=O)SCCOP1(=O)OC[C@H]2O[C@@H](n3ccc(=O)[nH]c3=O)[C@](C)(Cl)[C@@H]2O1 (single isomer, unassigned) [Compound 46 Single Diastereoisomer] | < 0.25 | > 50 |  |  |  |  |  |  |
| CC(C)OC(=O)[C@H](C)NP(=O)(OC[C@H]1O[C@@H](n2ccc(N)nc2=O)[C@](C)(Cl)[C@@H]1O)Oc1ccccc1 (single isomer, unassigned) [Compound 56ii Diastereomer 1] | > 10 | > 50 |  |  |  |  |  |  |
| CC(C)(C)C(=O)SCCOP1(=O)OC[C@H]2O[C@@H](n3ccc(N)nc3=O)[C@](C)(Cl)[C@@H]2O1 (single isomer, unassigned) [Compound 61 Diastereomer 2] |  |  | +++ (500 < +++ ≤ 1500) | ++++ (100 < ++++) | + (+ ≤ 150) | + (+ ≤ 15) | < 0.25 | > 50 |
| CCCCOC(=O)[C@@H](C)NP(=O)(OC[C@H]1O[C@@H](n2ccc(=O)[nH]c2=O)[C@](C)(Cl)[C@@H]1O)Oc1ccccc1 (single isomer, unassigned) [Compound 202i Diastereomer 2] |  |  | ++++ (1500 < ++++) | ++++ (100 < ++++) | ++++ (1500 < ++++) | ++++ (100 < ++++) | 0.25 to 1 | > 50 |
| C[C@@H](NP(=O)(OC[C@H]1O[C@@H](n2ccc(=O)[nH]c2=O)[C@](C)(Cl)[C@@H]1O)Oc1ccccc1)C(=O)OCc1ccccc1 (single isomer, unassigned) [Compound 205i Diastereomer 2] |  |  | ++++ (1500 < ++++) | ++++ (100 < ++++) | ++++ (1500 < ++++) | +++ (50 < +++ ≤ 100) | 0.25 to 1 | > 50 |
| CC(C)OC(=O)[C@H](C)NP(=O)(OC[C@H]1O[C@@H](n2cc(F)c3c(N)ncnc32)[C@](C)(Cl)[C@@H]1O)Oc1ccccc1 (single isomer, unassigned) [Compound 207ii Diastereomer 1] | > 10 | > 50 |  |  |  |  |  |  |
| CC(C)OC(=O)[C@H](C)NP(=O)(OC[C@H]1O[C@@H](n2ccc3c(N)ncnc32)[C@](C)(Cl)[C@@H]1O)Oc1ccccc1 (single isomer, unassigned) [Compound 208ii Diastereomer 1] | > 10 | > 50 | BLQ | BLQ |  |  |  |  |
| CC(C)OC(=O)[C@H](C)NP(=O)(OC[C@H]1O[C@@H](n2ccc3c(N)ncnc32)[C@](C)(Cl)[C@@H]1O)Oc1ccccc1 (single isomer, unassigned) [Compound 208ii Diastereomer 2] |  |  | BLQ | BLQ |  |  | > 10 | > 50 |
| CCCCOC(=O)[C@H](C)NP(=O)(OC[C@H]1O[C@@H](n2ccc(=O)[nH]c2=O)[C@](C)(Cl)[C@@H]1O)Oc1ccccc1 (single isomer, unassigned; diastereomer 1) [Compound 202ii Diastereomer 1] |  |  | +++ (500 < +++ ≤ 1500) | ++++ (100 < ++++) | ++++ (1500 < ++++) | ++++ (100 < ++++) | < 0.25 | > 50 |
| CCOC(=O)[C@H](C)NP(=O)(OC[C@H]1O[C@@H](n2ccc(=O)[nH]c2=O)[C@](C)(Cl)[C@@H]1O)Oc1ccccc1 (single isomer, unassigned; diastereomer 1) [Compound 203ii Diastereomer 1] |  |  | +++ (500 < +++ ≤ 1500) | +++ (50 < +++ ≤ 100) | +++ (500 < +++ ≤ 1500) | +++ (50 < +++ ≤ 100) | 0.25 to 1 | > 50 |
| CCOC(=O)[C@H](CC(C)C)NP(=O)(OC[C@H]1O[C@@H](n2ccc(=O)[nH]c2=O)[C@](C)(Cl)[C@@H]1O)Oc1ccccc1 (single isomer, unassigned; diastereomer 1) [Compound 204ii Diastereomer 1] |  |  | ++ (150 < ++ ≤ 500) | ++ (15 < ++ ≤ 50) | +++ (500 < +++ ≤ 1500) | +++ (50 < +++ ≤ 100) | 1 to 10 | > 50 |
| CCCCOC(=O)[C@H](C)NP(=O)(OC[C@H]1O[C@@H](n2ccc(=O)[nH]c2=O)[C@](C)(Cl)[C@@H]1O)Oc1ccccc1 (single isomer, unassigned; diastereomer 2) [Compound 202ii Diastereomer 2] |  |  | +++ (500 < +++ ≤ 1500) | +++ (50 < +++ ≤ 100) | ++++ (1500 < ++++) | ++++ (100 < ++++) | < 0.25 | > 50 |
| CCOC(=O)[C@H](C)NP(=O)(OC[C@H]1O[C@@H](n2ccc(=O)[nH]c2=O)[C@](C)(Cl)[C@@H]1O)Oc1ccccc1 (single isomer, unassigned; diastereomer 2) [Compound 203ii Diastereomer 2] |  |  | ++ (150 < ++ ≤ 500) | ++ (15 < ++ ≤ 50) | +++ (500 < +++ ≤ 1500) | +++ (50 < +++ ≤ 100) | 0.25 to 1 | > 50 |
| CCOC(=O)[C@H](CC(C)C)NP(=O)(OC[C@H]1O[C@@H](n2ccc(=O)[nH]c2=O)[C@](C)(Cl)[C@@H]1O)Oc1ccccc1 (single isomer, unassigned; diastereomer 2) [Compound 204ii Diastereomer 2] |  |  | ++ (150 < ++ ≤ 500) | ++ (15 < ++ ≤ 50) | ++++ (1500 < ++++) | ++++ (100 < ++++) | 0.25 to 1 | > 50 |
| C[C@@]1(Cl)[C@H](O)[C@@H](CO)O[C@H]1n1cnc2c(N)ncnc21 [Compound 302, 2′-C-Chloro-2′-C-methyladenosine] | > 10 | > 50 |  |  |  |  |  |  |
| C[C@@]1(Cl)[C@H](O)[C@@H](CO)O[C@H]1n1cc(F)c2c(N)ncnc21 [Compound 303] | > 10 | > 50 |  |  |  |  |  |  |
| CCOc1nc(N)nc2c1ncn2[C@@H]1O[C@H](CO)[C@@H](O)[C@@]1(C)Cl [Compound 304] | > 10 | > 50 |  |  |  |  |  |  |
| C[C@@]1(Cl)[C@H](O)[C@@H](CO)O[C@H]1c1ccc2c(N)ncnn12 [Compound 305] | > 10 | > 50 |  |  |  |  |  |  |
| C[C@@]1(Cl)[C@H](O)[C@@H](CO)O[C@H]1n1ccc(N)nc1=O [Compound 306] | > 10 | > 50 |  |  |  |  |  |  |

Reference: patent US10513534B2, “2′-chloro nucleoside analogs for HCV infection” (priority 2012, dated 2019)
